{
  "source": "patent US9744252B2",
  "about": "“Compounds for binding to the platelet specific glycoprotein IIb/IIIa and their use for imaging of thrombi” (PIRAMAL IMAGING SA, priority 2011, dated 2017)",
  "key": {"[1]": {"test_system": "human thrombi", "assay": "Ex vivo blood flow model: binding to human thrombi, with cold-compound competition", "conditions": "3 minutes post-injection of 18F-labeled compound; ± SEM", "excerpt": "Binding to Human Thrombi:\nThe binding of compounds to thrombi was further investigated in an ex vivo blood flow model similar to that described in “Wakhloo, A. K. et al. Thrombus and stroke 2008, in vitro models 57-66” but modified with regard to thrombus development. Briefly, an open handmade tube-set consisting of tygon-tubes (Tygon R-1000, part No AAU00007: I.D. 3.2 mm, O.D. 6.4 mm, Saint Gobain Performance Plastics North America), intermediate tubes (Intrafix® Infusion set, B. Braun, Melsungen, Germany) an open reservoir (10 mL Combitip, Eppendorf) and a chamber made of a piece of polyethylene-Tube, ([…] Polyethylene Tubing, Clay Adams, PE160, length: 6.5 cm) containing a loop of a roughened thread (fishing line: Okuma UltraMax whitefish, diameter: 0.14 mm, length: 5 cm; sandpaper: CAMI Grit designation: 600, CP918a, VSM) was used for thrombus formation. The connection between the intermediate tube and the thrombus chamber was made by trimmed tips (epTIPS, 200 μL, Eppendorff, Hamburg/Germany). The Reservoir and the thrombus chamber were fixed by clamps and stands. A peristaltic-pump (Minipuls 3, Gilson, Middelton/USA) was used to pump the blood around thereby adjusting the flow in the middle of the thrombus chamber to 70-90 cm per second, which was monitored by ultrasound Doppler measurement (Vevo 770 High-Resolution In Vivo Micro-Imaging System, VisualSonics, Toronto/Ontario, Canada; Scanhead: RMV 704, 40 MHz). The volume of the entire tube-set was 7.5 or 15 mL.\nFor each experiment fresh blood was taken from a volunteer using 10 mL citrate-tubes (Sarstedt S-Monovette 02.1067.001, 10 mL, Citrate 3.13%) and immediately laid into the turning-device of an incubator at a temperature of 37° C. (Heraeus miniTherm CTT with integrated rotation- and turning device, turning speed: 19 rotations per minute, Heraeus Instruments GmbH, Hanau/Germany). As needed, two tubes were taken out of the turning-device and 15 mL were transferred to a 20 mL Syringe (Omnifix®, B. Braun, Melsungen/Germany) and gently mixed with 0.75 mL CaCl2—Solution before the peristaltic pump was started and the whole content of the syringe was transferred into the reservoir of the tube-set via a cell strainer (BD Falcon™ cell strain, 40 μm, BD, Franklin Lakes, N.J. USA). […] Then, the pump was stopped, aliquots were taken from the blood and the thrombus together with the roughened thread was removed from the thrombus-chamber before both was weighted and measured in a gamma counter (Automatic Gamma Counter Wizard^2 3, Perkin Elmer). […] Finally the activity of the compound in blood and thrombus as well as the ratio between both was determined (cpm/weight [mg]). […]"}, "[2]": {"test_system": "arterial and venous thrombi", "assay": "Thrombus PET imaging and in vivo clot-to-blood ratio in cynomolgus monkeys", "set-up": "species or system cynomolgus monkey", "procedure": "Thrombus-Imaging in Cynomolgus Monkeys\nThe ability of the compound described in example 40 for the imaging of thrombi was investigated in a PET-study with cynomolgus monkeys (female, 2.8-3.2 kg).\nThe first monkey was anesthetized with a mixture of Xylazin (Rompun®, Bayer HealthCare, Leverkusen, Germany), 0.12 mL/Kg and Ketamine (Ketavet®, Pfizer) 0.12 mL/Kg b.w. i.m. and additionally analgesized by an i.m. injection of 6 μg Buprenorphine per kg. While the investigation, small amounts of Ketamine have been injected i.m. if required. The left common carotid artery was exposed surgically and a polyethylene-tube ([…] Polyethylene Tubing, Clay Adams, PE50), which was roughened previously by sandpaper (600—CAMI Grit designation), was inserted into the vessel, advanced into the descending aorta and was left there for 30 minutes to allow for the development of a thrombus on the rough surface of the tube. Meanwhile, the monkey was placed inside the PET-scanner (Inveon PET/CT, Siemens Medical, Erlangen). […] The thickness of this layer was far below 1 mm (see also removed thrombus of Monkey 2, FIG. 7) and therewith also far below the resolution of the image, which is approximately 1 mm. This also means, that even slightest thrombi, even if their size is far less than the resolution of the imaging-device, can be visualized due to the massive accumulation of compound on the platelets of the thrombi.\nAt the end of the experiment the tube was removed carefully from the vessel before it was weighted and measured in a gamma counter (Automatic Gamma Counter Wizard^2 3, Perkin Elmer). […] Finally the activity of the compound in blood and thrombus as well as the ratio between the two was determined (cpm/weight [mg]). […]\nThe in vivo clot-to-blood ratio was determined from 5 thrombi out of the above described monkey experiments. As already mentioned above the thrombi had been removed from the vessels after imaging and had been weighted and measured in a gamma-counter (Automatic Gamma Counter Wizard^2 3, Perkin Elmer) together with blood samples taken from the animal. After incubation of the thrombi in Plasmin (Plasmin from Human Plasma, Sigma Aldrich, Plasmin-stock-solution: 500 μg Plasmin in 500 μL Tris-buffer (150 μM, pH 7.8), 20 μL Plasmin-stock-solution to 230 μL saline solution 0.9%) and removal of the thrombi from the catheter tubes, the netto weight of the thrombi was calculated and the concentration of the compound in thrombus (clot) and blood, as well as the ratio between the two was calculated."}, "[3]": {"assay": "Blood clearance in a cynomolgus monkey (PET and gamma counter)", "type": "in vivo", "conditions": "25 MBq i.v., PET", "procedure": "FIG. 4: Blood kinetics of the compound described in example 40 in cynomolgus monkey.\nPET-imaging was performed continuously from shortly before up to 60 minutes post injection. Venous blood samples were taken at 3, 10, 30 and 60 minutes p.i. and were measured in a gamma-counter (Automatic Gamma Counter Wizard^2 3, Perkin Elmer) and expressed as cpm/mg blood. Additionally, the blood-concentration of the compound was measured from the PET-Image over the whole imaging period and expressed as % ID/g.\nBlood Clearance in a Cynomolgus Monkey\nThe blood clearance of the compound described in example 40 has been determined in a cynomolgus monkey. A female cynomolgus monkey was anesthetized with a mixture of Xylazin (Rompun®, Bayer HealthCare, Leverkusen, Germany), 0.12 mL/kg bodyweight and Ketamine (Ketavet®, Pfizer) 0.12 mL/kg bodyweight i.m. The monkey was placed inside the PET-scanner (Inveon PET/CT, Siemens Medical, Erlangen) and 25 MBq of the compound has been injected i.v. while PET-imaging was performed continuously from shortly before up to 60 minutes post injection. Venous blood samples were taken at 3, 10, 30 and 60 minutes p.i. and were measured in a gamma-counter (Automatic Gamma Counter Wizard^2 3, Perkin Elmer). Additionally, the blood-concentration of the compound was measured from the PET-Image over the whole imaging period (FIG. 4)."}, "[4]": {"assay": "Pharmacokinetics / biodistribution in mice", "type": "in vivo", "conditions": "nude mice, 185 KBq", "procedure": "FIG. 3: Biodistribution of the compound described in example 41 in mice.\nThe biodistribution of the compound described in example 41 was determined in nude mice. Briefly, the mice received 185 KBq of the compound each. At different time points (1, 3, 10, 30, 120 minutes p.i., 3 mice per group) the animals were sacrificed and the organs of interest or aliquots thereof were removed, weighted and finally measured in a gamma counter (Automatic Gamma Counter Wizard^2 3, Perkin Elmer)."}, "[5]": {"assay": "In vitro metabolic stability in liver microsomes, human", "conditions": "all investigated species", "protocol": "(§1) Human liver microsomes in suspension (protein content 0.5 mg/mL) were used for metabolic stability studies. The incubation concentration was 0.3 μM. […] After addition of 30 μL of test compound the assay was started. The compound was dissolved in an organic solvent and diluted with the same liver microsome medium in order to keep the organic content below the recommended concentration (dimethylsulfoxide DMSO <0.2% and methanol <1%). […] The samples were frozen over night at −20° C. The solutions were centrifuged for 15 min at 3000 g. The clear supernatant (100 μL) was used to determine the concentration. The analysis was performed with an Agilent 1200 HPLC system with a LCMS/MS detector.\n(§2) The susceptibility of investigated compounds to degradation by phase-I oxidative metabolism was investigated using liver microsomes from different species."}, "[6]": {"conditions": "female, cynomolgus monkey, 0.3 μM, pH 7.4", "protocol": "as §1, §2"}, "[7]": {"conditions": "both, human, 0.3 μM, pH 7.4", "protocol": "as §1, §2"}, "[8]": {"conditions": "male, Wistar, rat, 0.3 μM, pH 7.4", "protocol": "as §1, §2"}, "[9]": {"assay": "In vitro metabolic stability in liver microsomes, mouse", "type": "in vitro ADME", "conditions": "NMRI, female, 0.3 μM, calculated", "procedure": "In Vitro Metabolic Stability in Liver Microsomes\nThe incubation concentration was 0.3 μM. […] The samples were frozen over night at −20° C.\nThe recovery was almost 100% for all investigated species."}},
  "note": "Where “and” joins values, the source holds several entries; their conditions need not be identical. Equal values may be shown once. Entries after “also recorded” stand apart in the source; their conditions may differ. Read-outs that look alike come from different tables or passages of the source.",
  "data": [
    {"smiles": "O=C(O)C[C@H](NC(=O)[C@@H]1CCCN(C(=O)CCC2CCNCC2)C1)c1ccc(OCC[18F])cc1", "note": "[Example 39, (3S)-3-[4-(2-[^18F]Fluoroethoxy)phenyl]-3-[({(3R)-1-[3-(piperidin-4-yl)propanoyl]piperidin-3-yl}carbonyl)amino]propanoic acid]", "values": [
      {"measurement": "Accumulation Thrombus [10^3 cpm/mg]", "setting": "[1]", "value": "86 ± 9 (n = 6) 10^3 cpm/mg"}
    ]},
    {"smiles": "O=C(O)C[C@H](NC(=O)[C@@H]1CCCN(C(=O)CCC2CCNCC2)C1)c1cncc(OCC[18F])c1", "note": "[Example 40, (3S)-3-[5-(2-[^18F]Fluoroethoxy)pyridin-3-yl]-3-[({(3R)-1-[3-(piperidin-4-yl)propanoyl]piperidin-3-yl}carbonyl)amino]propanoic acid]", "values": [
      {"measurement": "Blood [cpm/mg]", "setting": "[2]; blood samples after imaging, Cynomolgus monkey", "value": "90 cpm/mg and 130 cpm/mg and 100 cpm/mg"},
      {"measurement": "PET signal / accumulation in thrombi", "setting": "[2]; cynomolgus monkeys, 25 MBq or 15 MBq i.v., up to 60 minutes p.i.", "value": "bright signal inside the descending aorta alongside the roughened part of the tube; also recorded: all arterial and venous thrombi showed a bright signal; also recorded: surprisingly high accumulation even in slightest venous and arterial thrombi"},
      {"measurement": "retention within the thrombus", "setting": "[2]; cynomolgus monkeys, 60 minutes shown", "value": "almost completely remains within the thrombus over a long time"},
      {"measurement": "background in surrounding tissue or organ", "setting": "[2]; cynomolgus monkeys, PET", "value": "almost no background in any surrounding tissue or organ"},
      {"measurement": "contrast in the brain", "setting": "[3]", "value": "completely free of contrast"},
      {"measurement": "signal in other tissue", "setting": "[3]", "value": "only marginal signal visible in any other tissue"}
    ]},
    {"smiles": "N#Cc1cc(-c2cncc([C@H](CC(=O)O)NC(=O)[C@@H]3CCCN(C(=O)CCC4CCNCC4)C3)c2)ccc1[18F]", "note": "[Example 42, (3S)-3-[5-(3-Cyano-4-[^18F]fluorophenyl)pyridin-3-yl]-3-[({(3R)-1-[3-(piperidin-4-yl)propanoyl]piperidin-3-yl}carbonyl)amino]propanoic acid]", "values": [
      {"measurement": "Accumulation Thrombus [10^3 cpm/mg]", "setting": "[1]", "value": "39 ± 5 (n = 6) 10^3 cpm/mg"}
    ]},
    {"smiles": "O=C(O)C[C@H](NC(=O)[C@@H]1CCCN(C(=O)CCC2CCNCC2)C1)c1cncc(-c2ccc(OCC[18F])cc2)c1", "note": "[Example 41, (3S)-3-{5-[4-(2-[^18F]Fluoroethoxy)phenyl]pyridin-3-yl}-3-[({(3R)-1-[3-(piperidin-4-yl)propanoyl]piperidin-3-yl}carbonyl)amino]propanoic acid]", "values": [
      {"measurement": "elimination from the blood", "setting": "[4]", "value": "rapidly eliminated from the blood"},
      {"measurement": "enhancement in the vessel-wall", "setting": "[4]", "value": "no enhancement in the vessel-wall"},
      {"measurement": "excretion", "setting": "[4]", "value": "quickly excreted over the kidney and liver"},
      {"measurement": "Accumulation Thrombus [10^3 cpm/mg]", "setting": "[1]", "value": "44 ± 7 (n = 6) 10^3 cpm/mg"}
    ]},
    {"smiles": "O=C(O)C[C@H](NC(=O)[C@@H]1CCCN(C(=O)CCC2CCNCC2)C1)c1cccc(OCC[18F])c1", "note": "[Example 38, (3S)-3-[3-(2-[^18F]Fluoroethoxy)phenyl]-3-[({(3R)-1-[3-(piperidin-4-yl)propanoyl]piperidin-3-yl}carbonyl)amino]propanoic acid]", "values": [
      {"measurement": "Accumulation Thrombus [10^3 cpm/mg]", "setting": "[1]", "value": "41 ± 3 (n = 5) 10^3 cpm/mg"}
    ]},
    {"smiles": "O=C(O)C[C@H](NC(=O)[C@@H]1CCCN(C(=O)CCC2CCNCC2)C1)c1cncc(OCCF)c1", "note": "[Compound 3]", "values": [
      {"measurement": "recovery", "setting": "[5]", "value": "~100", "unit": "%"}
    ]},
    {"smiles": "O=C(O)C[C@H](NC(=O)[C@@H]1CCCN(C(=O)CCC2CCNCC2)C1)c1cncc(OCCF)c1", "note": "[Example 3, (3S)-3-[5-(2-Fluoroethoxy)pyridin-3-yl]-3-[({(3R)-1-[3-(piperidin-4-yl)propanoyl]-piperidin-3-yl}carbonyl)amino]propanoic acid]", "values": [
      {"measurement": "CLblood", "setting": "[6]", "value": 2.4, "unit": "mL/day/kg"},
      {"measurement": "CLblood", "setting": "[7]", "value": 2.4, "unit": "mL/day/kg"},
      {"measurement": "CLblood", "setting": "[8]", "value": 2.4, "unit": "mL/day/kg"},
      {"measurement": "CLblood", "setting": "[9]", "value": 2.4, "unit": "mL/day/kg"}
    ]}
  ]
}
